Test results from PubChem BioAssay AID256 (DTP/NCI, 2004).
Several values for one entry are separate records, joined by “and”; a condition that tells them apart may be missing. Equal entries are not always repeated. Toxic doses and inconclusive results are not listed. The calls were made as follows: active = survival T/C of 150% or more; inactive = T/C below 125% in these data.

System: CD2F1 mice, L1210 leukemia ip, survival T/C
Experiment: NCI In Vivo Anticancer Drug Screen. Data for tumor model L1210 Leukemia (intraperitoneal) in CD2F1 (CDF1) mice
Conditions: endpoint: mean survival time, higher = longer survival
Summary of the method: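 Ratio T/C, where T is the treated-group value and C the vehicle-dosed control value, from mice implanted with a transplantable tumor.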

[1] = dose: 25.0 mg/kg/injection, schedule: Q04DX002 (ip), vehicle: saline with Tween-80
[2] = dose: 50.0 mg/kg/injection, schedule: Q04DX002 (ip), vehicle: saline with Tween-80
[3] = dose: 100.0 mg/kg/injection, schedule: Q04DX002 (ip), vehicle: saline with Tween-80
[4] = dose: 200.0 mg/kg/injection, schedule: Q01DX001 (ip), vehicle: saline with Tween-80
[5] = dose: 400.0 mg/kg/injection, schedule: Q01DX001 (ip), vehicle: saline with Tween-80
[6] = dose: 100.0 mg/kg/injection, schedule: Q01DX009 (ip), vehicle: saline with Tween-80
[7] = dose: 400.0 mg/kg/injection, schedule: Q01DX009 (ip), vehicle: saline with Tween-80
[8] = dose: 12.5 mg/kg/injection, schedule: Q01DX009 (ip), vehicle: saline with Tween-80
[9] = dose: 25.0 mg/kg/injection, schedule: Q01DX009 (ip), vehicle: saline with Tween-80
[10] = dose: 50.0 mg/kg/injection, schedule: Q01DX009 (ip), vehicle: saline with Tween-80
[11] = dose: 100.0 mg/kg/injection, schedule: Q04DX003 (ip), vehicle: saline with Tween-80
[12] = dose: 200.0 mg/kg/injection, schedule: Q04DX003 (ip), vehicle: saline with Tween-80
[13] = dose: 400.0 mg/kg/injection, schedule: Q04DX003 (ip), vehicle: saline with Tween-80
[14] = dose: 100.0 mg/kg/injection, schedule: Q04DX003 (ip), vehicle: saline
[15] = dose: 200.0 mg/kg/injection, schedule: Q04DX003 (ip), vehicle: saline
[16] = dose: 400.0 mg/kg/injection, schedule: Q04DX003 (ip), vehicle: saline
[17] = dose: 200.0 mg/kg/injection, schedule: Q01DX009 (ip), vehicle: saline with Tween-80

Measured: T/C

Nc1ccc(CNc2ccccc2)cc1
inactive: dose: 100.0 mg/kg/injection, schedule: Q04DX002 (ip), vehicle: other 95 % of control and 103 % of control | dose: 200.0 mg/kg/injection, schedule: Q04DX002 (ip), vehicle: other 100 % of control and 106 % of control | dose: 400.0 mg/kg/injection, schedule: Q04DX002 (ip), vehicle: other 118 % of control and 91 % of control

O=C(Sc1ccccc1)C(CO)c1ccccc1 (centres undefined)
inactive: [1] 101 % of control | [2] 101 % of control | [3] 97 % of control

CN(C)/N=C(\CBr)c1ccc([N+](=O)[O-])cc1
inactive: dose: 100.0 mg/kg/injection, schedule: Q01DX001 (ip), vehicle: saline 100 % of control | dose: 200.0 mg/kg/injection, schedule: Q01DX001 (ip), vehicle: saline 94 % of control

CC(=O)NC(=O)CC(O)(c1ccccc1)c1ccccc1
inactive: [4] 91 % of control | [5] 88 % of control

N#CSC/C(=N\Nc1ccc([N+](=O)[O-])cc1[N+](=O)[O-])c1ccccc1
inactive: dose: 100.0 mg/kg/injection, schedule: Q04DX003 (ip), vehicle: saline sonified 103 % of control | dose: 200.0 mg/kg/injection, schedule: Q04DX003 (ip), vehicle: saline sonified 102 % of control | dose: 400.0 mg/kg/injection, schedule: Q04DX003 (ip), vehicle: saline sonified 103 % of control

CCOC(=O)NC(S(=O)(=O)O)S(=O)(=O)O.[Tl]
inactive: dose: 6.25 mg/kg/injection, schedule: Q01DX001 (ip), vehicle: saline with Tween-80 98 % of control | dose: 12.5 mg/kg/injection, schedule: Q01DX001 (ip), vehicle: saline with Tween-80 90 % of control | dose: 25.0 mg/kg/injection, schedule: Q01DX001 (ip), vehicle: saline with Tween-80 98 % of control

S=C(NCc1ccccc1)Nc1ncn[nH]1
inactive: dose: 12.5 mg/kg/injection, schedule: Q01DX001 (ip), vehicle: carboxymethylcellulose (CMC) 97 % of control | dose: 25.0 mg/kg/injection, schedule: Q01DX001 (ip), vehicle: carboxymethylcellulose (CMC) 89 % of control | dose: 50.0 mg/kg/injection, schedule: Q01DX001 (ip), vehicle: carboxymethylcellulose (CMC) 86 % of control | dose: 100.0 mg/kg/injection, schedule: Q01DX001 (ip), vehicle: carboxymethylcellulose (CMC) 86 % of control

COc1ccc(NC(=O)Oc2ccc(Cl)c(C)c2)cc1
inactive: [6] 89 % of control | [7] 92 % of control

O=C(CN1CCCCC1)NC(=O)NC1=C(N2CCCCC2)C(=O)c2ccccc2C1=O
inactive: dose: 100.0 mg/kg/injection, schedule: Q01DX001 (ip), vehicle: other 97 % of control | dose: 200.0 mg/kg/injection, schedule: Q01DX001 (ip), vehicle: other 101 % of control | dose: 400.0 mg/kg/injection, schedule: Q01DX001 (ip), vehicle: other 95 % of control

CN1CCCN(C)C1c1ccccc1O
inactive: [8] 105 % of control | [9] 102 % of control | [10] 107 % of control

O=C(COc1cccc(Cl)c1)NCc1ccc(NC(=O)c2ccc(S(=O)(=O)F)cc2)cc1
inactive: dose: 100.0 mg/kg/injection, schedule: Q01DX001 (ip), vehicle: saline with Tween-80 96 % of control | [4] 91 % of control | [5] 87 % of control

O=c1[nH]nc([O-])c2c1[n+](Cc1ccccc1)cn2Cc1ccccc1
inactive: dose: 9.4 mg/kg/injection, schedule: Q01DX005 (ip), vehicle: water 94 % of control | dose: 18.8 mg/kg/injection, schedule: Q01DX005 (ip), vehicle: water 98 % of control | dose: 37.5 mg/kg/injection, schedule: Q01DX005 (ip), vehicle: water 91 % of control | dose: 75.0 mg/kg/injection, schedule: Q01DX005 (ip), vehicle: water 88 % of control

c1ccc(CCC2=Nc3ccccc3CO2)cc1
inactive: [11] 102 % of control | [12] 103 % of control | [13] 102 % of control

CC(CCc1ccccc1)NC(C)C(O)c1ccc(O)cc1 (centres undefined)
inactive: [9] 102 % of control | [10] 96 % of control | [6] 102 % of control | [11] 102 % of control

CCCCCC/C=C/C(O)CC (centres undefined)
inactive: [14] 100 % of control | [15] 95 % of control | [16] 103 % of control

NC(=O)C1(C(N)=O)CC1
inactive: dose: 100.0 mg/kg/injection, schedule: Q04DX002 (ip), vehicle: saline 108 % of control | dose: 200.0 mg/kg/injection, schedule: Q04DX002 (ip), vehicle: saline 104 % of control | dose: 400.0 mg/kg/injection, schedule: Q04DX002 (ip), vehicle: saline 100 % of control

NC(CCC(=O)NC(=O)OCc1ccccc1)C(=O)O (centres undefined)
inactive: [11] 93 % of control | [12] 101 % of control | [13] 90 % of control

Cc1csc2ncn(C3OC(CO)C(O)C3O)c(=O)c12 (centres undefined)
inactive: [8] 110 % of control | [9] 101 % of control | [10] 94 % of control

CCCCCCCC(=O)Nc1ccccc1F
inactive: [14] 103 % of control | [15] 103 % of control | [16] 95 % of control

Cc1cccc(C(=O)C=C(C(F)(F)F)C(F)(F)F)c1
inactive: [8] 103 % of control | [9] 113 % of control

CC(C)NC(=O)CCn1c(=O)c2ccccc2c(=O)n1C
inactive: dose: 25.0 mg/kg/injection, schedule: Q04DX003 (ip), vehicle: saline 98 % of control | dose: 50.0 mg/kg/injection, schedule: Q04DX003 (ip), vehicle: saline 98 % of control | [14] 96 % of control | [15] 106 % of control | [16] 101 % of control

Nc1ncnc2c1nc(N1CCCCC1)n2C1OC(CO)C(O)C1O (centres undefined)
inactive: dose: 12.5 mg/kg/injection, schedule: Q01DX005 (ip), vehicle: distilled water + Tween-80 92 % of control and 98 % of control | dose: 25.0 mg/kg/injection, schedule: Q01DX005 (ip), vehicle: distilled water + Tween-80 103 % of control and 97 % of control | dose: 50.0 mg/kg/injection, schedule: Q01DX005 (ip), vehicle: distilled water + Tween-80 99 % of control and 98 % of control | dose: 100.0 mg/kg/injection, schedule: Q01DX005 (ip), vehicle: distilled water + Tween-80 101 % of control and 100 % of control | dose: 200.0 mg/kg/injection, schedule: Q01DX005 (ip), vehicle: distilled water + Tween-80 97 % of control and 100 % of control

CCCCCCCC(=O)Nc1c(C)cc(C)cc1C
inactive: [6] 91 % of control | [17] 98 % of control | [7] 92 % of control

O=C(CCC1CC=CCC1)c1ccccc1 (centres undefined)
inactive: [1] 111 % of control | [2] 96 % of control | [3] 90 % of control | dose: 200.0 mg/kg/injection, schedule: Q04DX002 (ip), vehicle: saline with Tween-80 93 % of control

CCCC(=O)Nc1ccc([N+](=O)[O-])cc1OC
inactive: [11] 96 % of control | [12] 102 % of control | [13] 104 % of control

C/C(=C\Cl)COC(C)(C)C
inactive: [10] 98 % of control | [6] 93 % of control | dose: 100.0 mg/kg/injection, schedule: Q04DX003 (ip), vehicle: acetone 101 % of control | [17] 98 % of control | dose: 200.0 mg/kg/injection, schedule: Q04DX003 (ip), vehicle: acetone 93 % of control
